The values below come from patent US11066369B2, “N-(pyridin-2-yl)pyridine-sulfonamide derivatives and their use in the treatment of disease” (Novartis AG, priority 2016, dated 2021).

The target of assay [1] is T1, delF508-CFTR (Homo sapiens, UniProt P13569, DEL508-508).
T1 construct: functional activity of the CFTR channel (Chloride ion transport) in patient derived primary human bronchial epithelial cells; host or cells: patient-derived primary human bronchial epithelial cells (delF508-CFTR)
The experiment in a line: Measurement of delF508-CFTR functional activity in primary human bronchial epithelial cells (HBECs) using Multi-Transepithelial Clamp Circuit (MTECC-24) assay. Type of assay: cell-based. Conditions: primary CF HBECs; for MTECC24 CFHBEC- Amax %: test compound added 24h before assay plus potentiator, relative to reference combination (2 μM corrector + 0.5 μM potentiator); for EC50: test compound added 24h before assay, in the presence of potentiator, mean of at least two replicates, read-out: MTECC24 CFHBEC- EC50. An excerpt: [formula] Measurement of delF508-CFTR Functional Activity in Primary Human Bronchial Epithelial Cells (HBECs) Using Multi-Transepithelial Clamp Circuit (MTECC-24) Assay
This assay measures the functional activity of the CFTR channel (Chloride ion transport) in patient derived primary human bronchial epithelial cells with forskolin activation and in the presence of the CFTR corrector/potentiator combo.
Primary human delF508-CFTR bronchial epithelial cells were purchased from Asterand and cultured according to previously established methods (Fulcher et al. (2005) Methods Mol Med 107: 183-206). Briefly, vendor supplied cells were rapidly defrosted and added to a T175 flask in 50 mL growth media (Lonza BEBM media with Lonza BEGM singlequots). Media was replaced after 24h and then cells were fed every other day until cells were 80-90% confluent, at which point cells were cryopreserved. These P1 vials were thawed at 37° C. as needed and added to T175 flasks in 50 mL growth media at 5×10^5 cells/flask. Media was replaced after 24h, and then cells were fed every other day until 80-90% confluent. Cells were lifted with 5 mL accutase at 37° C. for 5 minutes, centrifuged at 1000 rpms for 5 min (300 g), and resuspended in differentiation media (50% BEBM in DMEM, BEGM singlequots, all trans retinoic acid (5×10^−8M)). Cells were then counted and cell suspension was added to collagen coated inserts at 3×10^4 cells/insert in 0.15 mL with 0.5 mL differentiation media on the basolateral side.
Apical and basolateral media were replaced on alternate days, and following day 7 (or when confluent plus 2 days), air liquid interface was established for approximately two weeks by removal of apical media. One day prior to use on the MTECC24 system (EP-Devices, EP Design, Belgium), 0.15 mL of warmed (37° C.) PBS was added to the apical surface of the cultures and returned to humidifier (37° C., 5% CO2 incubator) for 30 min before aspirating the apical surface to remove any mucus.
Compound treatments were then prepared. Compound dilutions, typically a 10 point concentration response with 1 in 3 dilution steps, were made in 100% DMSO before dilution 1 in 1000 into differentiation medium with a final DMSO concentration of 0.1% or 0.2% for the study. Compound containing medium was then transferred into the wells of a 24 well plate at 0.5 mL per well and warmed for 30 min in a 37° C. incubator prior to transferring washed inserts into the compound containing plates. Cells were incubated in compound containing medium (basolateral only) for 24h prior to measurement in the MTECC24 system.
Following 24 hr treatment, compound dilutions were prepared again, diluted 1 in 1000 into 37° C. assay medium (F-12 Coon's modified, 20 mM HEPES pH7.4 with TRIS Base, No FCS or bicarbonate). Cells which were treated for 24h with test compound were then transferred into plates containing 0.75 mL compound treatment in assay medium (basolateral) and 0.25 mL of the compound containing assay medium was added to the apical surface. The plates were then transferred to the heated plate compartments of the MTECC24 system for 45 min prior to measurements (this can also be done in a non-CO2 37° C. humidified incubator). Basolateral temperature should not exceed 36.5° C. and apical temperature should be approximately 35.5° C.
Modulators were added sequentially as follows while the MTECC24 instrument recorded the equivalent short circuit current (Ieq):
Prior to dilution into F-12 medium the stocks are as follows:
Amiloride stock is 10 mM in H2O
Forskolin Stock is 10 mM in 100% DMSO
(S)-3-amino-6-methoxy-N-(3,3,3-trifluoro-2-hydroxy-2-methylpropyl)-5-(trifluoromethyl)picolinamide is 0.5 mM stock in 100% DMSO
INH-172 (4-[[4-Oxo-2-thioxo-3-[3-trifluoromethyl)phenyl]-5-thiazolidinylidene]methyl]benzoic acid) stock is 30 mM in 100% DMSO
The data was normalized using the median signal from wells treated with 0.1% DMSO as a baseline. […]

The target of assay [2] is T2, horseradish peroxidase (HRP) tagged delF508-CFTR (Homo sapiens, UniProt P13569, DEL508-508).
T2 construct: expressed in transfected cells
T2 sequence (P13569 with tags, fused parts or gaps DEL508-508): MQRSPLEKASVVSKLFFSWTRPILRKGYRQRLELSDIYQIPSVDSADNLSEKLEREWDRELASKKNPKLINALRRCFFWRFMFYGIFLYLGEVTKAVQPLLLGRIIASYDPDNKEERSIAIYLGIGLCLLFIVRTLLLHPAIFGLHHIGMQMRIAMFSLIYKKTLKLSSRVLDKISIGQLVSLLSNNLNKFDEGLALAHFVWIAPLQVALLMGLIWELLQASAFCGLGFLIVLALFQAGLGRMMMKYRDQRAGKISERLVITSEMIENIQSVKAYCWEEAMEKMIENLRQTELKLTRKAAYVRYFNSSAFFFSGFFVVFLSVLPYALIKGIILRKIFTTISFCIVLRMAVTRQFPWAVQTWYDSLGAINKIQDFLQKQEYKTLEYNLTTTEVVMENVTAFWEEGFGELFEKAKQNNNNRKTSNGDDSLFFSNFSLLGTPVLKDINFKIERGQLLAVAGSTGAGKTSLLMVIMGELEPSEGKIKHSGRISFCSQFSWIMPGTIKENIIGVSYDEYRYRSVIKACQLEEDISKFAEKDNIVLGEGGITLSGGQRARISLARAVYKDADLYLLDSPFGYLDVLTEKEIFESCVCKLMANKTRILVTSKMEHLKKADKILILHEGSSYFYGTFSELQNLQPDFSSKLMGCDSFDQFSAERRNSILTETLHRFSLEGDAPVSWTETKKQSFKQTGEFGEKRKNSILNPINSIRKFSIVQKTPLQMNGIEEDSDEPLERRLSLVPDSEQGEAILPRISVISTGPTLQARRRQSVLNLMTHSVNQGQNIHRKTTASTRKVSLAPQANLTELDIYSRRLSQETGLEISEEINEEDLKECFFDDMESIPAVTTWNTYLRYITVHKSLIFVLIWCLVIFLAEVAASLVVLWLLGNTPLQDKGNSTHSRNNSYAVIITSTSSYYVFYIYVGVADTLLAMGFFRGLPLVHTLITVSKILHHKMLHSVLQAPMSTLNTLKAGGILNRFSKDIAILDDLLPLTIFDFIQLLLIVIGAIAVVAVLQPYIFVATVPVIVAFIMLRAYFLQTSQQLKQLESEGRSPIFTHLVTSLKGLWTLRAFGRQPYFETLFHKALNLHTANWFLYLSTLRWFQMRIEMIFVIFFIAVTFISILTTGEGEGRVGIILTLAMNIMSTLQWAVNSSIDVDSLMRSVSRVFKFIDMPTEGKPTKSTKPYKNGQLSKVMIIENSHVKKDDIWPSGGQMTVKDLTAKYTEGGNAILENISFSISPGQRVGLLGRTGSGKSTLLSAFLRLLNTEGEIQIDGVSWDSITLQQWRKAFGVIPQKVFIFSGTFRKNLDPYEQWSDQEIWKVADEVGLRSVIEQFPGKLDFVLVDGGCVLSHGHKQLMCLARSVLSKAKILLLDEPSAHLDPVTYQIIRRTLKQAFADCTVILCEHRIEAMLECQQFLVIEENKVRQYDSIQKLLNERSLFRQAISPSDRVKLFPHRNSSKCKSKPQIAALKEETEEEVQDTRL
The experiment in a line: Measurement of delF508-CFTR-HRP surface expression in CFBE41o- cells.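 On DelF508-CFTR-HRP Amax %: percent efficacy relative to reference corrector lumacaftor.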 The note with it: delF508-CFTR-HRP surface expression, CFBE41o- cells; for Emax: read-out: DelF508-CFTR-HRP Amax %; for EC50: read-out: DelF508-CFTR-HRP EC50. Type of assay: cell-based. The gist of the method:
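Surface-trafficked delF508-CFTR detected via extracellular HRP tag, read as luminescence from a membrane-impermeant substrate in CFBE41o- cells. Cells pre-induced 48h with 500 ng/mL doxycycline, then exposed 24h at 37° C to a 10-point, 3-fold dilution series from 10 μM (DMSO ≤0.5%). Triplicate dose-responses fitted logistically for EC50 after per-plate normalization; fold change versus reference compound.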

Counter-ions that a name gives are not always drawn.

T1 sequence (P13569 with tags, fused parts or gaps DEL508-508): as above

`Cc1c(F)cccc1-c1nc(NS(=O)(=O)c2cccc(N3CCN(C(C)(C)C)CC3)n2)ccc1Cl` [Example 140, 6-(4-(tert-butyl)piperazin-1-yl)-N-(5-chloro-6-(3-fluoro-2-methylphenyl)pyridin-2-yl)pyridine-2-sulfonamide]: in assay [1], the “MTECC24 CFHBEC- Amax %” value was 65.3% and the EC50 (as a rule, the concentration at which the effect is half-maximal) was determined as 29.5 nM. In assay [2], the Emax was found to be 395% and the EC50 came out at 3480 nM.

In the case of `Cc1ccccc1-c1nc(NS(=O)(=O)c2cccc(N3CC[C@@H](N)C3)n2)ccc1C(F)(F)F` [Example 119, (R)-6-(3-aminopyrrolidin-1-yl)-N-(6-(o-tolyl)-5-(trifluoromethyl)pyridin-2-yl)pyridine-2-sulfonamide Hydrochloride], in assay [1], the “MTECC24 CFHBEC- Amax %” value worked out at 70.2% and the EC50 worked out at 55.3 nM. Moreover, in assay [2], the Emax came to 411% and the EC50 worked out at 1830 nM.

For the compound `Cc1ccc(C#N)cc1-c1nc(NS(=O)(=O)c2cccc(N3CCNCC3)n2)ccc1Cl` [Example 312, N-(5-chloro-6-(5-cyano-2-methylphenyl)pyridin-2-yl)-6-(piperazin-1-yl)pyridine-2-sulfonamide], in assay [1], the “MTECC24 CFHBEC- Amax %” value is listed as 49.8% and the EC50 turned out to be 458 nM. In assay [2], the Emax stood at 167% and the EC50 stood at 3970 nM.

Consider `Cc1ccc(F)cc1-c1nc(NS(=O)(=O)c2cccc(N3CCC(C(=O)O)C3)n2)ccc1C(F)(F)F` (centres unmarked) [Example 300, 1-(6-(N-(6-(5-fluoro-2-methylphenyl)-5-(trifluoromethyl)pyridin-2-yl)sulfamoyl)pyridin-2-yl) pyrrolidine-3-carboxylic Acid], for which, in assay [1], the “MTECC24 CFHBEC- Amax %” value is recorded as 43.5% and the EC50 was determined as 12.8 nM. Moreover, in assay [2], the Emax was 626% and the EC50 was 3270 nM.

For `C[C@]1(C(=O)O)CCCN(c2cccc(S(=O)(=O)Nc3ccc(C(F)(F)F)c(-c4ccccc4C4CCC4)n3)n2)C1` [Example 373, (S)-1-(6-(N-(6-(2-cyclobutylphenyl)-5-(trifluoromethyl)pyridin-2-yl)sulfamoyl)pyridin-2-yl)-3-methylpiperidine-3-carboxylic Acid], in assay [1], the “MTECC24 CFHBEC- Amax %” value is given as 93.1% and the EC50 was 1.17 nM. In assay [2], the Emax turned out to be 367% and the EC50 worked out at 273 nM.

`Cc1ccccc1-c1nc(NS(=O)(=O)c2cccc(N3CC4(C3)OCCC4N)n2)ccc1C(F)(F)F` (centres unmarked) [Example 303, 6-(8-amino-5-oxa-2-azaspiro[3.4]octan-2-yl)-N-(6-(o-tolyl)-5-(trifluoromethyl)pyridin-2-yl)pyridine-2-sulfonamide]: in assay [1], the “MTECC24 CFHBEC- Amax %” value was determined as 65.5% and the EC50 worked out at 71.7 nM. Moreover, in assay [2], the Emax turned out to be 491% and the EC50 came out at 3170 nM.

As to `Cc1ccc(C#N)cc1-c1nc(NS(=O)(=O)c2cccc(N3CC(C)(O)C3)n2)ccc1C(F)(F)F` [Example 299, N-(6-(5-cyano-2-methylphenyl)-5-(trifluoromethyl)pyridin-2-yl)-6-(3-hydroxy-3-methylazetidin-1-yl)pyridine-2-sulfonamide], in assay [1], the “MTECC24 CFHBEC- Amax %” value was 61.7% and the EC50 is 9.4 nM. For the same compound, in assay [2], the Emax was found to be 554% and the EC50 was determined as 2440 nM.

Turning to `Cc1ccc(F)cc1-c1nc(NS(=O)(=O)c2cccc(N3C[C@@H](C)N[C@@H](C)C3)n2)ccc1C(F)(F)F` [Example 178, 6-((3S,5R)-3,5-dimethylpiperazin-1-yl)-N-(6-(5-fluoro-2-methylphenyl)-5-(trifluoromethyl)pyridin-2-yl)pyridine-2-sulfonamide Hydrochloride], in assay [1], the “MTECC24 CFHBEC- Amax %” value worked out at 66.3% and the EC50 was determined as 209 nM. Moreover, in assay [2], the Emax was determined as 231% and the EC50 stood at 1150 nM.

On to `O=C(O)[C@@H]1CCCN(c2cccc(S(=O)(=O)Nc3ccc(C(F)(F)F)c(-c4ccccc4C4CCC4)n3)n2)C1` [Example 366, (R)-1-(6-(N-(6-(2-cyclobutylphenyl)-5-(trifluoromethyl)pyridin-2-yl)sulfamoyl)pyridin-2-yl)piperidine-3-carboxylic Acid], for which, in assay [1], the “MTECC24 CFHBEC- Amax %” value came to 66.9% and the EC50 turned out to be 0.797 nM. Further, in assay [2], the EC50 turned out to be 1340 nM.

As to `Nc1cccc(S(=O)(=O)Nc2ccc(C(F)(F)F)c(-c3ccc(F)cc3Cl)n2)n1` [Example 41, 6-amino-N-(6-(2-chloro-4-fluorophenyl)-5-(trifluoromethyl)pyridin-2-yl)pyridine-2-sulfonamide], in assay [1], the “MTECC24 CFHBEC- Amax %” value is given as 88.8% and the EC50 was determined as 13.9 nM. In assay [2], the Emax is 368% and the EC50 turned out to be 2340 nM.

For the compound `Cc1ccc(C(F)(F)F)cc1-c1nc(NS(=O)(=O)c2cccc(N3CC(O)C3)n2)ccc1Cl` [Example 223, N-(5-chloro-6-(2-methyl-5-(trifluoromethyl)phenyl)pyridin-2-yl)-6-(3-hydroxyazetidin-1-yl)pyridine-2-sulfonamide], in assay [1], the “MTECC24 CFHBEC- Amax %” value was found to be 59.9% and the EC50 is 14.4 nM. For the same compound, in assay [2], the Emax worked out at 427% and the EC50 is 1920 nM.

For `Cc1c(F)cccc1-c1nc(NS(=O)(=O)c2ccnc(N3CC(O)C3)c2)ccc1Cl` [Example 323, N-(5-chloro-6-(3-fluoro-2-methylphenyl)pyridin-2-yl)-2-(3-hydroxyazetidin-1-yl)pyridine-4-sulfonamide], in assay [1], the “MTECC24 CFHBEC- Amax %” value came to 67.7% and the EC50 was 147 nM. Moreover, in assay [2], the Emax is 252% and the EC50 was 2770 nM.

In the case of `CC1(C(=O)O)CCN(c2cccc(S(=O)(=O)Nc3ccc(C(F)(F)F)c(-c4ccccc4C4CC4)n3)n2)CC1` [Example 237, 1-(6-(N-(6-(2-cyclopropylphenyl)-5-(trifluoromethyl)pyridin-2-yl)sulfamoyl)pyridin-2-yl)-4-methylpiperidine-4-carboxylic Acid], in assay [1], the “MTECC24 CFHBEC- Amax %” value worked out at 55.4% and the EC50 amounted to 4.3 nM. Besides, in assay [2], the Emax was determined as 544% and the half-maximal effective concentration (EC50) was 1460 nM.

Turning to `Cc1ccccc1-c1nc(NS(=O)(=O)c2cccc(N3CC[C@@H](N)[C@@H](F)C3)n2)ccc1C(F)(F)F` [Example 111, 6-((3S,4R)-4-amino-3-fluoropiperidin-1-yl)-N-(6-(o-tolyl)-5-(trifluoromethyl)pyridin-2-yl)pyridine-2-sulfonamide Hydrochloride], in assay [1], the “MTECC24 CFHBEC- Amax %” value was 59.5% and the EC50 was determined as 31.8 nM.
